Active and inactive are the calls of the source. The calls are words filed in the database; no cut-off is given here.
Experiments:
[1] = system: PC-12; experiment: Neuroprotective activity against H2O2-induced cytotoxicity in rat PC12 cells assessed as increase in cell viability preincubated for 2 hrs followed by H2O2 addition and measured after 24 hrs by MTT assay; format: functional, cell-based
[2] = system: BV-2; experiment: Anti-neuroinflammatory activity in mouse BV2 cells assessed as inhibition of LPS-induced TNFalpha production at 2.5 uM preincubated for 30 mins followed by LPS stimulation measured after 24 hrs by ELISA relative to control; format: functional
[3] = biological target: Amyloid-beta precursor protein (Homo sapiens) (UniProt P05067); experiment: Disaggregation of self-induced amyloid beta (1 to 42) (unknown origin) preformed fibrils at 25 uM measured after 24 hrs by thioflavin-T fluorescence assay relative to control
Sequence of Amyloid-beta precursor protein (Homo sapiens) (P05067 whole entry): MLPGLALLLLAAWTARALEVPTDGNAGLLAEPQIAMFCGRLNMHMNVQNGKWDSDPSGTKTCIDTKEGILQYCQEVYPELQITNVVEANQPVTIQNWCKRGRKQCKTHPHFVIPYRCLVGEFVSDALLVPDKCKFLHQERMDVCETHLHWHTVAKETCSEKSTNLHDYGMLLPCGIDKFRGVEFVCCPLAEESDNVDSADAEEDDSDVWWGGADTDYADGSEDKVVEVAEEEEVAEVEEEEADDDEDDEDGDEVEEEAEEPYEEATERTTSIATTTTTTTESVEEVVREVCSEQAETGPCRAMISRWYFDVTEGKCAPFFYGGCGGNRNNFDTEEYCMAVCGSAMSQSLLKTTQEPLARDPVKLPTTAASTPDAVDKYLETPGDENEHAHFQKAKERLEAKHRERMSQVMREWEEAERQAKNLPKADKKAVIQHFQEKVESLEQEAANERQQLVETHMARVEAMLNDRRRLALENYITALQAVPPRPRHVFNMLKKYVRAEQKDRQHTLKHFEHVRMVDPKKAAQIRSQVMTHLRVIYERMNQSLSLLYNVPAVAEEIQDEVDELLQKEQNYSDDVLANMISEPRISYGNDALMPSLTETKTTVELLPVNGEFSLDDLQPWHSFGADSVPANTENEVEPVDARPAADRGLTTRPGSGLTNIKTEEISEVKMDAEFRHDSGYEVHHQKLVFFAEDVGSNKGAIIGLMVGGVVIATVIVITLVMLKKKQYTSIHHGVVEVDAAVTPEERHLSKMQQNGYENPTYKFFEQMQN

[4] = Metal chelating activity assessed as Fe2+-compound complex formation at 37.5 uM measured after 2 hrs in presence of 37.5 uM FeSO4 by UV-vis spectrophotometric analysis
[5] = system: BV-2; experiment: Cytotoxicity against LPS-induced mouse BV2 cells assessed as reduction in cell viability at 0.5 to 10 uM preincubated for 30 mins followed by LPS stimulation and measured after 24 hrs by MTT assay; format: cell-based; conditions: bv-2, 24 h
[6] = system: PC-12; experiment: Neuroprotective activity against H2O2-induced cytotoxicity in rat PC12 cells assessed as cell viability at 1 uM preincubated for 2 hrs followed by H2O2 addition and measured after 24 hrs by MTT assay (reference value: 48.3%); format: functional; conditions: read-out: Activity
[7] = Effective permeability of the compound in PBS/EtOH buffer (7:3) at 100 ug/ml after 18 hrs by PAMPA-BBB assay; format: ADME; conditions: read-out: Peff
[8] = system: BV-2; experiment: Anti-neuroinflammatory activity in mouse BV2 cells assessed as inhibition of LPS-induced TNFalpha production at 10 uM preincubated for 30 mins followed by LPS stimulation measured after 24 hrs by ELISA relative to control; format: functional
[9] = Metal chelating activity assessed as compound-Cu2+ complex stoichiometry ratio of 1:1 at 37.5 uM in presence of CuCl2 after 15 mins by UV-visible spectrophotometric analysis
[10] = system: BV-2; experiment: Cytotoxicity against mouse BV2 cells assessed as reduction in cell viability at 0.5 to 10 uM measured after 30 mins by MTT assay; format: cell-based; conditions: bv-2, 0.5 h
[11] = system: BV-2; experiment: Anti-neuroinflammatory activity in mouse BV2 cells assessed as inhibition of LPS-induced TNFalpha production preincubated for 30 mins followed by LPS stimulation measured after 24 hrs by ELISA; format: functional, cell-based
[12] = system: BV-2; experiment: Anti-neuroinflammatory activity in mouse BV2 cells assessed as inhibition of LPS-induced NO production at 0.5 uM preincubated for 30 mins followed by LPS stimulation measured after 24 hrs by Griess reagent based assay relative to control; format: functional
[13] = system: BV-2; experiment: Effect on TNFalpha production in mouse BV2 cells at 10 uM measured after 30 mins by ELISA; format: ADME, cell-based; conditions: bv-2, 0.5 h
[14] = biological target: T1, Amine oxidase [flavin-containing] B (Homo sapiens, UniProt P27338); experiment: Inhibition of recombinant human MAOB expressed in baculovirus infected in BTI cells at 10 uM using kynuramine as substrate after 30 mins by fluorescence based assay relative to control; conditions: 0.5 h
T1 sequence (P27338 whole entry): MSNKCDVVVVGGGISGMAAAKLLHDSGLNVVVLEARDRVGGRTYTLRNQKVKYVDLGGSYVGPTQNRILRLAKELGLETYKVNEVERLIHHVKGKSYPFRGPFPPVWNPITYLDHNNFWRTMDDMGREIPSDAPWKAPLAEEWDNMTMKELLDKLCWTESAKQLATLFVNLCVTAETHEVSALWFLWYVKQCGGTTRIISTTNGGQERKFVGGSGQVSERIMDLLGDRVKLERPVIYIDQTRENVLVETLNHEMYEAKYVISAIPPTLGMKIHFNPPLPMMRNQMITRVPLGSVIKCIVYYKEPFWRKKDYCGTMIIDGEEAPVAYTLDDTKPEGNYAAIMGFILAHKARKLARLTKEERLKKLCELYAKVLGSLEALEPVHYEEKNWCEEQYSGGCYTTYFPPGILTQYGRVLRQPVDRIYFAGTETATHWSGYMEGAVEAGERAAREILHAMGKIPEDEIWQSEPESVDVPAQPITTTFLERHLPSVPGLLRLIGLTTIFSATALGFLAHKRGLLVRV

[15] = biological target: T2, Amine oxidase [flavin-containing] A (Homo sapiens, UniProt P21397); experiment: Inhibition of recombinant human MAOA expressed in baculovirus infected in BTI cells at 10 uM using kynuramine as substrate after 30 mins by fluorescence based assay relative to control; conditions: 0.5 h
T2 sequence (P21397 whole entry): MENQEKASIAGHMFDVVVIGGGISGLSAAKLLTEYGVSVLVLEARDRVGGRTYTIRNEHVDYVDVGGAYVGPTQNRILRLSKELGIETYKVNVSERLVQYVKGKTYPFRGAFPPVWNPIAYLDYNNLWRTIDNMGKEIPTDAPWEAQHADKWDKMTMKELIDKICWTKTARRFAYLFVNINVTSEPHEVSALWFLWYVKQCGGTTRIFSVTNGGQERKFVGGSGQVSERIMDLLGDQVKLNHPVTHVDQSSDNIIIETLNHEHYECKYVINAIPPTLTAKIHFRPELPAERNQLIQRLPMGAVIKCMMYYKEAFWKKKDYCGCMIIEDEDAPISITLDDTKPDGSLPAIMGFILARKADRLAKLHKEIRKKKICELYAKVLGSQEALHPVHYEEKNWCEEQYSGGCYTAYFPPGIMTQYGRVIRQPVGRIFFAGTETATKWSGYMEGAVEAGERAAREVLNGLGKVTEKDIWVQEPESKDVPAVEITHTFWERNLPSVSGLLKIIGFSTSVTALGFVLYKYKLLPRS

[16] = system: BV-2; experiment: Anti-neuroinflammatory activity in mouse BV2 cells assessed as inhibition of LPS-induced NO production at 10 uM preincubated for 30 mins followed by LPS stimulation measured after 24 hrs by Griess reagent based assay relative to control; format: functional
[17] = system: BV-2; experiment: Anti-neuroinflammatory activity in mouse BV2 cells assessed as inhibition of LPS-induced TNFalpha production at 0.5 uM preincubated for 30 mins followed by LPS stimulation measured after 24 hrs by ELISA relative to control; format: functional
[18] = Metal chelating activity assessed as Zn2+-compound complex formation at 37.5 uM measured after 2 hrs in presence of 37.5 uM ZnCl2 by UV-vis spectrophotometric analysis
[19] = Metal chelating activity assessed as Al3+-compound complex formation at 37.5 uM measured after 2 hrs in presence of 37.5 uM AlCl3 by UV-vis spectrophotometric analysis
[20] = system: BV-2; experiment: Anti-neuroinflammatory activity in mouse BV2 cells assessed as inhibition of LPS-induced NO production at 2.5 uM preincubated for 30 mins followed by LPS stimulation measured after 24 hrs by Griess reagent based assay relative to control; format: functional
[21] = system: BV-2; experiment: Effect on nitric oxide production in mouse BV2 cells at 0.5 to 10 uM measured after 30 mins by Griess reagent based […]; format: ADME, cell-based; conditions: bv-2, 0.5 h
[22] = system: BV-2; experiment: Anti-neuroinflammatory activity in mouse BV2 cells assessed as inhibition of LPS-induced NO production preincubated for 30 mins followed by LPS stimulation measured after 24 hrs by Griess reagent based assay; format: functional, cell-based
[23] = Antioxidant activity assessed as AAPH-induced radical scavenging activity by measuring trolox equivalents for oxygen radical absorbance capacity measured every minute for 90 mins by ORAC-FL assay; format: functional
[24] = biological target: Amyloid-beta precursor protein (Homo sapiens) (UniProt P05067); experiment: Inhibition of HFIP-pretreated amyloid beta (1 to 42) (unknown origin) self-aggregation at 25 uM after 24 hrs by thioflavin-T fluorescence assay relative to control
[25] = Metal chelating activity assessed as Cu2+-compound complex formation at 37.5 uM measured after 2 hrs in presence of 37.5 uM CuCl2 by UV-Vis spectrophotometric analysis
[26] = system: PC-12; experiment: Neuroprotective activity against H2O2-induced cytotoxicity in rat PC12 cells assessed as cell viability at 10 uM preincubated for 2 hrs followed by H2O2 addition and measured after 24 hrs by MTT assay (reference value: 48.3%); format: functional; conditions: read-out: Activity
[27] = biological target: Amyloid-beta precursor protein (Homo sapiens) (UniProt P05067); experiment: Inhibition of Cu2+-induced HFIP-pretreated amyloid beta (1 to 42) (unknown origin) aggregation at 25 uM measured after 24 hrs by thioflavin-T fluorescence assay relative to control
[28] = biological target: T1, Amine oxidase [flavin-containing] B; experiment: Inhibition of recombinant human MAOB expressed in baculovirus infected in BTI cells using kynuramine as substrate after 30 mins by fluorescence based assay; format: cell-based

Activity [3] | Activity [4] | Papp at 18 h, 100 ug/ml [7] | Activity [9] | inhibition at 10 µM [14] | inhibition at 10 µM [15] | Activity [18] | Activity [19] | Structure (SMILES) | Activity [1] | inhibition at 2.5 µM [2] | Activity [5] | viability at 1 µM [6] | inhibition at 10 µM [8] | Activity [10] | inhibition [11] | inhibition at 0.5 µM [12] | Activity [13] | inhibition at 10 µM [16] | inhibition at 0.5 µM [17] | inhibition at 2.5 µM [20] | other results
91.1% | inactive | 4.09 ×10⁻⁶ cm/s | Active | 34.6% | 35.4% | inactive | Active | COC(=O)C(C)c1ccc(-c2ccccc2NCc2cc(N(C)C)ccc2O)c(F)c1 (stereo not given) | Dose-dependent effect | 49.1% | Non-Toxic | 68.6% | 68.1% | Non-Toxic | Dose-dependent effect | 26.9% | Non-Toxic | 52.4% | 35% | 43.4% | Activity [21]: Non-Toxic; inhibition [22]: Dose-dependent effect; Activity [23]: 1.91 µMequiv/µM; inhibition [24]: 96.1%; Activity [25]: Active; viability at 10 µM [26]: 80%; inhibition [27]: 87.3%
91.1% | inactive | 5.48 ×10⁻⁶ cm/s | Active | 52.4% | 26.3% | inactive | Active | COC(=O)C(C)c1ccc(-c2ccc(NCc3cc(N(C)C)ccc3O)cc2)c(F)c1 (stereo not given) | Dose-dependent effect | 53.1% | Non-Toxic | 70.2% | 76.5% | Non-Toxic | Dose-dependent effect | 32.4% | Non-Toxic | 57.2% | 35.8% | 46.7% | Activity [21]: Non-Toxic; inhibition [22]: Dose-dependent effect; Activity [23]: 2.44 µMequiv/µM; inhibition [24]: 96.3%; Activity [25]: Active; IC50 [28]: 10.3 µM; viability at 10 µM [26]: 81.6%; inhibition [27]: 84.3%
